# Data published in US20210275596A1, “APPLICATION OF GENE PROFILE FOR CELLS ISOLATED USING FRESH-TRACER” (CELL2IN, INC., priority 2018, published 2021).
# Tests used:
# Assay type in all cases: cell-based, human
# [1] = test system: HeLa cells; assay: FR monitoring in cells loaded with FreSH-tracer; conditions: for change of FR: HeLa cells equilibrated with 5 μM FreSH-tracer for 2 hours
# Procedure: To utilize a FreSH-tracer for GSH monitoring in living cells, its cytotoxicity was evaluated. […] HeLa cells were equilibrated with treatment of 5 μM FreSH-tracer for 2 hours. […] The FR in the nucleus was about 1.5- to 2-fold higher than that of the cytoplasm.
# The in vitro experiments described above established that H2O2 treatment diminishes only the FRGSH, while having little effect on the FRPSH. […] Thus, the FreSH-tracer can report the real-time dynamic changes of GSH concentration in live cells under oxidative stress.
# [2] = test system: hES-MSCs; assay: Chemotaxis to PDGF-AA; conditions: for effect on chemoattraction to PDGF: naive hES-MSCs
# Procedure: FIGS. 4A, 4B, 4C and 4D are graphs showing analyses of colony-forming unit fibroblasts (CFU-F; n=15), limiting dilution by replating primary CFU colonies (n=6), chemotaxis to stromal derived factor-1α (SDFα; 150 ng/mL, n=8), and chemotaxis to 10 ng/mL platelet-derived growth factor (PDGF)-AA in the absence or presence of STI571 (0.5 μg/mL), a PDGFR inhibitor (n=8).
# At this time, for differentiation media, the cells were maintained and cultured in each of adipogenic induction medium (DMEM supplemented with 5% FBS, […], […], […] and 0.5 mM isobutylmethylxanthine), osteogenic induction medium (DMEM supplemented with 5% FBS, […], […], and 10 mM glycerophosphate), and chondrogenic induction medium (e.g., StemPro chondrogenesis, Invitrogen). FIG. 3 is a graph showing the results of qPCR performed to quantify lineage-specific genes in non-differentiated(Non) FR^High cells and FR^Low cells and differentiated(Diff) FR^High cells and FR^Low cells. Additionally, FR^High hES-MSCs had approximately 4.7- and 4.9-fold higher numbers of CFU-F than did FR^Mild and FR^Low cells, respectively (FIG. 4A).
# [3] = test system: hES-MSCs; assay: GSH depletion or supplementation: clonogenic and migration capacities
# [4] = test system: HeLa cells; assay: Mitochondrial FR monitoring with MitoFreSH-tracer
# Excerpt: The mitochondrion is the major site of endogenous ROS generation during normal oxidative metabolism. Cytosolic GSH is transported to the mitochondria, preventing macromolecular damage and modulating ROS-induced signaling. To further analyze the FR heterogeneity in the cytoplasm, a mitochondria-targeting FreSH-tracer derivative, designated MitoFreSH-tracer was synthesized by attaching a triphenylphosphonium moiety to a FreSH-tracer.
compound,measurement,setting,value
"O=[N+]([O-])c1ccc(Cl)c([N+](=O)[O-])c1 [1-chloro-2,4-dinitrobenzene]",restoring of FR after diamide,[1]; GSH-depleted HeLa cells,abrogated
"CCCCS(=N)(=O)CCC(N)C(=O)O (centres unmarked) [BSO, buthionine sulfoximine]",effect on chemoattraction to PDGF,[2],significant repression
same,effect on enhanced clonogenic and migration capacities and related gene upregulation,[3]; FR^High hES-MSCs,severely impaired
O[C@@H](CS)[C@@H](O)CS [DTT],change of FR,[1],rapidly increased
"CCOC(=O)CNC(=O)[C@H](CS)NC(=O)CC[C@H](N)C(=O)O [GSH-EE, glutathione ethyl ester]",effect on chemoattraction to PDGF,[2],activation
same,effect on declined cellular functions,[3]; FR^Low hES-MSCs,reversed
CCN1C(=O)C=CC1=O [NEM],change of FR,[1],gradually decreased
Cc1ccc(NC(=O)c2ccc(CN3CCN(C)CC3)cc2)cc1Nc1nccc(-c2cccnc2)n1 [STI571],effect on PDGF chemotactic activity of FR^High cells,"[2]; STI571 0.5 μg/mL, 10 ng/mL PDGF-AA",significantly blocked
CN(C)C(=O)/N=N/C(=O)N(C)C [diamide],change of mitochondrial FR,[4],decreased
same,change of FR,[1],gradually decreased
antimycin A,change of mitochondrial FR,[4],concentration-dependent decrease
